Data: patent US20260015387A1, “MITOCHONDRIAL ANTIOXIDANT PEPTIDES” (priority 2022, published 2026)
Where two headings read alike, the source gives them in different places. Square brackets hold non-standard residues; d marks the D form. Dmt = Cc1cc(O)cc(C)c1C[C@H](N)C(=O)O

Legend:
16HBE41o-cells = type: cell-based; conditions: for Protection against HOCl-mediated cell death: cells treated with 200 μM HOCl, MTT assay
Experimental: 16HBE41o-cells were treated with 200 μM of HOCl for 60 min in PBS with or without increasing concentrations of peptides. Cells were washed and then placed back in media and cell viability was assess at 24 hours using the MTT assay. % Protection was determined by normalizing data to cell viability with and without oxidant.
An HOCl protection assay using 16HBE41o-cells was performed. This assay measured protection against cell death using HOCl as the oxidant. RH8=2TH peptide and RH9=His peptide. […] For this assay, 16HBE41o-cells were treated with 200 μM of HOCl for 60 minutes in PBS with or without increasing concentrations of test compounds. Cells were washed and then placed back in media and cell viability was assess at 24 hours using the MTT assay. % Protection was determined by normalizing data to cell viability with and without oxidant. Data curves were generated using Prism 8 software (GraphPad) for 50% effective concentration (EC50) determinations and their respective 95% confidence intervals.

[1] = Hydroxyl radical scavenging measured by EPR; conditions: DMPO trap, compared to the SS-31 peptide (FIG. 7)
Experimental: Hydroxyl radical scavenging activity of peptides measured by electron paramagnetic resonance (EPR). Hydroxyl radical was generated by a reaction of 0.8 mM FeSO4, with 0.8-mM H2O2, pH 7.0 (250 μL). The hydroxyl radicals were trapped with 5,5-dimethyl-1-pyrroline-N-oxide (DMPO) prior to obtaining spectra.

[2] = DPPH antioxidant activity (radical quenching); conditions: compared to the SS-31 peptide (FIG. 3)
Experimental: Experiments were performed to determine DPPH antioxidant activity. Radical concentration of DPPH was determined after reacting with varying concentrations of peptide. DPPH is an organic radical with a peak ABS at 525 nm.

[3] = system: Human HMESO malignant mesothelioma cells; assay: ROS glow assay (cellular H2O2 levels); type: cell-based; conditions: 250 mM peptide, 50 μM menadione, 4 hours; compared to the SS-31 peptide (FIG. 8)
Experimental: An ROS glow assay was also performed. The assay measures the levels of H2O2 after injury to the cell. Human HMESO malignant mesothelioma cells were incubated with […] of WT, 2-TH or His compound with the addition 50 μM menadione and the H2O2 substrate for 4 hours (in duplicate). The reaction was quenched with addition of the H2O2 detection substrate. Luminescence levels were measured in a plate reader after 30 minutes of incubation.

[4] = In vitro antioxidant capacity studies; conditions: in vitro data
Source text: Various in vitro antioxidant capacity studies and some cell-based protection assays have been performed. […] This is especially true for HOCl-mediated injury as illustrated in FIG. 9.

cardiolipin = assay: Cardiolipin binding assay (cytochrome c reduction by ascorbate); conditions: compared to SS31 (FIG. 18)
Source text: Cardiolipin binds to cytochrome c, preventing it from being reduced by ascorbate. When the peptide binds cardiolipin, cytochrome c is free to be reduced by ascorbate.

[5] = ABTS radical quenching assay; conditions: FIGS. 4-6
Experimental: ABTS assays were also performed. ABTS is a radical cation that is blue in color and absorbs light at 734 nm. 7 mM AzBTS was mixed in water with 2.45 mM potassium persulfate and left 16 hrs in the dark at rt to oxidize. […] The ABTS solution was diluted to an absorbance of ˜0.7 at 734 nm. Samples were assayed with ABTS: 990 μL ABTS solution+10 μL sample. Stocks of peptides were made with concentrations in the range of 0.1 mM to 3.2 mM. This assay may be a better choice than DPPH if there is less steric hindrance. FIGS. 4-6 show the results of these experiments.

[6] = system: cellular reactive oxygen species; conditions: ROS caused by 1-butyl hydroperoxide; cited from earlier work
[7] = after global ischemia; cited from earlier work

| Compound | EC50 (16HBE41o-cells; cells treated with 200 μM HOCl for 60 min in PBS, viability at 24 hours, MTT, read-out: EC50 of protection against HOCl-mediated cell death) [µM] | Protection against HOCl-mediated cell death (16HBE41o-cells) | Scavenging of the hydroxyl radical [1] | Scavenging of the DPPH radical [2] | Cellular levels of H2O2 [3] | Antioxidant activity (overall comparison) [4] | Binding to cardiolipin (CL) (cardiolipin) | Quenching of the ABTS radical [5] | Protection against HOCl-mediated cell death (16HBE41o-cells; listed as WT peptide) | Scavenging of cellular reactive oxygen species [6] | Prevention of reperfusion-associated myocardial stunning [7] |
| --- | --- | --- | --- | --- | --- | --- | --- | --- | --- | --- | --- |
| N=C(N)NCCC[C@@H](N)C(=O)N[C@@H](Cc1c[nH]c(=S)[nH]1)C(=O)N[C@@H](CCCCN)C(=O)N[C@@H](Cc1ccccc1)C(N)=O [RH8] | 50 | protects strongly | better at scavenging | better at scavenging the DPPH radical | significantly lower compared to the SS-31 peptide | significantly better antioxidant than the SS-31 peptide | binds to CL equally well as SS31 | – | – | – | – |
| H-[dR][Dmt]KF-NH2 [SS-31] | – | did not protect against HOCl-mediated injury at all | – | – | – | – | – | quenches the ABTS radical better | did not show any protection | scavenged cellular reactive oxygen species | prevented reperfusion-associated myocardial stunning |
